From patent US12552783B2, “Modulators of proteolysis and associated methods of use” (Arvinas Operations, Inc., priority 2018, dated 2026)

Target: KRas (Homo sapiens, UniProt P01116, G12C)
Experiment: KRas degradation in NCI-H2030 cells by Western blot, normalized to GAPDH (data of Table 14)
Format: cell-based
Design: host or cells: NCI-H2030
Details: for Dmax: NCI-H2030
Description: Cell Lines, Antibodies, and Reagents. NCI-H2030 (CRL-5914) and SW1573 (CRL-2170) cells were purchased from ATCC. Both cell lines are homozygous for the G12C mutation in KRas. NCI-H2030 cells were cultured in RPMI-1640 medium containing 1% penicillin-streptomycin and 10% fetal bovine serum (FBS). SW1573 cells were cultured in DMEM containing 1% penicillin-streptomycin and 10% FBS. The KRas detection antibody (Cat. No. LS-C175665) was purchased from LifeSpan Biosciences and was used at a dilution of 1:2000. GAPDH was detected using an antibody purchased from Cell Signaling Technology (Cat. No. 5174) and was diluted 1:3000. Secondary anti-mouse and anti-rabbit detection antibodies were purchased from Cell Signaling Technology (Cat. Nos. 7076 and 7074, respectively).
Compound Treatment and Western Blotting of the Data of Table 14. Either NCI-H2030 or SW1573 cells were plated in 12-well plates and allowed to adhere overnight at 37° C. in an incubator containing 5% CO2. The following day, the medium was replaced with the appropriate medium lacking FBS to induce starvation. Cells were returned to the incubator for an additional 24 hours following media exchange. […] Cells were treated with VHL-based compounds for 24 hours and all other compounds for 72 hours. Following treatment, cells were lysed in RIPA buffer (Thermo Fisher Cat. No. 89900) containing phosphatase (Thermo Fisher Cat. No. 1861277) and protease (Thermo Fisher Cat. No. 78429) inhibitor cocktails. Lysates were cleared at 13,000 rpm for 15 minutes and supernatants were assayed for total protein concentration using the Pierce BCA assay system (Thermo Fisher Cat. No. 23225). For each sample, 10 μg total protein was resolved on a 12% Bis-Tris gel and then transferred to a nitrocellulose membrane. After blocking in 3% BSA in TBST (Tris-buffered Saline with 0.1% Tween-20) for 1 hour at room temperature, membranes were probed with the primary antibody (LS Bio Cat. No. LS-C175665) overnight at 4° C. After incubation with the secondary antibody, the following day membranes were visualized using the SuperSignal™ West Femto substrate (Thermo Fisher Cat. No. 34095). The KRas signal in each lane was normalized to GAPDH and percent degradation was either estimated as less than 25% by visual inspection (C in Table 13) or quantitated relative to the DMSO control lane using BIO-RAD Image Lab 5.2.1, and all data was plotted using GraphPad PRISM 6.07.
DC50 is the half-maximal degradation concentration—i.e., the concentration at which 50% degradation is observed. DMax is the maximum degradation efficacy is achieved—i.e., the maximal degradation observed) degradation data.

Percent Degradation at Indicated Concentration (μM) (H2030, 0.3 μM) | Percent Degradation at Indicated Concentration (μM) (H2030, 1 μM) | Percent Degradation at Indicated Concentration (μM) (H2030, 3 μM) | Dmax [%] | Percent Degradation at Indicated Concentration (μM) (H2030 cells, 3 μM) | Percent Degradation at Indicated Concentration (μM) (H2030 cells, 0.3 μM) | Percent Degradation at Indicated Concentration (μM) (H2030 cells, 1 μM) | Dmax (H2030 cells) [%] | Compound
C (Percent Degradation: C ≤ 35) | C (Percent Degradation: C ≤ 35) | C (Percent Degradation: C ≤ 35) | ≤ 35 | – | – | – | – | Cc1ncsc1-c1ccc([C@H](C)NC(=O)[C@@H]2C[C@@H](O)CN2C(=O)[C@@H](NC(=O)COCCOCCN(C)C(=O)CCNc2nc(N3CCN(C(=O)C(O)O)CC3)c3cc(Cl)c(-c4c(O)cccc4F)c(F)c3n2)C(C)(C)C)cc1 (atropisomer, axis not shown) [compound 237, (2S,4R)-1-((S)-2-(tert-butyl)-15-(((R)-6-chloro-4-(4-(2,2-dihydroxyacetyl)piperazin-1-yl)-8-fluoro-7-(2-fluoro-6-hydroxyphenyl)quinazolin-2-yl)amino)-12-methyl-4,13-dioxo-6,9-dioxa-3,12-diazapentadecanoyl)-4-hydroxy-N-((S)-1-(4-(4-methylthiazol-5-yl)phenyl)ethyl)pyrrolidine-2-carboxamide]
– | – | – | – | C (Percent Degradation: C ≤ 35) | – | – | – | Cc1ncsc1-c1ccc([C@H](C)NC(=O)[C@@H]2C[C@@H](O)CN2C(=O)[C@@H](NC(=O)COCCOCCOCCN(C)C(=O)CCNc2nc(N3CCN(C(=O)C(O)O)CC3)c3cc(Cl)c(-c4c(O)cccc4F)c(F)c3n2)C(C)(C)C)cc1 (atropisomer, axis not shown) [compound 238, (2S,4R)-1-((S)-2-(tert-butyl)-18-((6-chloro-4-(4-(2,2-dihydroxyacetyl)piperazin-1-yl)-8-fluoro-7-((S)-2-fluoro-6-hydroxyphenyl)quinazolin-2-yl)amino)-15-methyl-4,16-dioxo-6,9,12-trioxa-3,15-diazaoctadecanoyl)-4-hydroxy-N-((S)-1-(4-(4-methylthiazol-5-yl)phenyl)ethyl)pyrrolidine-2-carboxamide]
– | – | – | – | C (Percent Degradation: C ≤ 35) | C (Percent Degradation: C ≤ 35) | C (Percent Degradation: C ≤ 35) | ≤ 35 | Cc1ncsc1-c1ccc([C@H](C)NC(=O)[C@@H]2C[C@@H](O)CN2C(=O)[C@@H](NC(=O)COCCOCCOCCN(C)C(=O)CCNc2nc(N3CCN(C(=O)C(O)O)CC3)c3cc(Cl)c(-c4c(O)cccc4F)c(F)c3n2)C(C)(C)C)cc1 (atropisomer, axis not shown) [compound 239, (2S4R)-1-((S)-2-(tert-butyl)-18-((6-chloro-4-(4-(2,2-dihydroxyacetyl)piperazin-1-yl)-8-fluoro-7-((R)-2-fluoro-6-hydroxyphenyl)quinazolin-2-yl)amino)-15-methyl-4,16-dioxo-6,9,12-trioxa-3,15-diazaoctadecanoyl)-4-hydroxy-N-((S)-1-(4-(4-methylthiazol-5-yl)phenyl)ethyl)pyrrolidine-2-carboxamide,]
– | – | – | – | C (Percent Degradation: C ≤ 35) | C (Percent Degradation: C ≤ 35) | C (Percent Degradation: C ≤ 35) | – | Cc1ncsc1-c1ccc([C@H](C)NC(=O)[C@@H]2C[C@@H](O)CN2C(=O)[C@@H](NC(=O)COCCOCCOCCOCCN(C)C(=O)CCNc2nc(N3CCN(C(=O)C(O)O)CC3)c3cc(Cl)c(-c4c(O)cccc4F)c(F)c3n2)C(C)(C)C)cc1 (atropisomer, axis not shown) [compound 240, (2S,4R)-1-((S)-2-(tert-butyl)-21-(((S)-6-chloro-4-(4-(2,2-dihydroxyacetyl)piperazin-1-yl)-8-fluoro-7-(2-fluoro-6-hydroxyphenyl)quinazolin-2-yl)amino)-18-methyl-4,19-dioxo-6,9,12,15-tetraoxa-3,18-diazahenicosanoyl)-4-hydroxy-N-((S)-1-(4-(4-methylthiazol-5-yl)phenyl)ethyl)pyrrolidine-2-carboxamide]
C (Percent Degradation: C ≤ 35) | C (Percent Degradation: C ≤ 35) | C (Percent Degradation: C ≤ 35) | ≤ 35 | – | – | – | – | C=CC(=O)N1CCN(c2nc(NCCC(=O)N(C)CCOCCOc3ccc(-c4csc([C@@H]5CCCN5C(=O)[C@@H](NC(=O)[C@H](C)NC)C5CCCCC5)n4)c4ccccc34)nc3c(F)c(-c4c(O)cccc4F)c(Cl)cc23)CC1 (atropisomer, axis not shown) [compound 276, 3-((4-(4-acryloylpiperazin-1-yl)-6-chloro-8-fluoro-7-((S)-2-fluoro-6-hydroxyphenyl)quinazolin-2-yl)amino)-N-(2-(2-((4-(2-((S)-1-((S)-2-cyclohexyl-2-((S)-2-(methylamino)propan-amido)acetyl)pyrrolidin-2-yl)thiazol-4-yl)naphthalen-1-yl)oxy)ethoxy)ethyl)-N-methylpropanamide]
C (Percent Degradation: C ≤ 35) | C (Percent Degradation: C ≤ 35) | C (Percent Degradation: C ≤ 35) | ≤ 35 | – | – | – | – | C=CC(=O)N1CCN(c2nc(NCCC(=O)N(C)CCOCCOCCOCCOc3ccc(-c4csc([C@@H]5CCCN5C(=O)[C@@H](NC(=O)[C@H](C)NC)C5CCCCC5)n4)c4ccccc34)nc3c(F)c(-c4c(O)cccc4F)c(Cl)cc23)CC1 (atropisomer, axis not shown) [compound 278, 3-((4-(4-acryloylpiperazin-1-yl)-6-chloro-8-fluoro-7-((S)-2-fluoro-6-hydroxyphenyl)quinazolin-2-yl)amino)-N-(2-(2-(2-(2-((4-(2-((S)-1-((S)-2-cyclohexyl-2-((S)-2-(methylamino)propan-amido)acetyl)pyrrolidin-2-yl)thiazol-4-yl)naphthalen-1-yl)oxy)ethoxy)ethoxy)eth-oxy)ethyl)-N-methylpropanamide]
C (Percent Degradation: C ≤ 35) | C (Percent Degradation: C ≤ 35) | C (Percent Degradation: C ≤ 35) | ≤ 35 | – | – | – | – | C=CC(=O)N1CCN(c2nc(NCCC(=O)N(C)CCOCCNC(=O)c3ccc(NC(=O)[C@@H]4N[C@@H](CC(C)(C)C)[C@](C#N)(c5ccc(Cl)cc5F)[C@H]4c4cccc(Cl)c4F)c(OC)c3)nc3c(F)c(-c4c(O)cccc4F)c(Cl)cc23)CC1 (atropisomer, axis not shown) [compound 307, (2R,3S,4R,5S)-N-(4-((2-(2-(3-((4-(4-acryloylpiperazin-1-yl)-6-chloro-8-fluoro-7-((S)-2-fluoro-6-hydroxyphenyl)quinazolin-2-yl)amino)-N-methylpropanamido)ethoxy)eth-yl)carbamoyl)-2-methoxyphenyl)-3-(3-chloro-2-fluorophenyl)-4-(4-chloro-2-fluorophenyl)-4-cyano-5-neopentylpyrrolidine-2-carboxamide]
C (Percent Degradation: C ≤ 35) | C (Percent Degradation: C ≤ 35) | C (Percent Degradation: C ≤ 35) | ≤ 35 | – | – | – | – | C=CC(=O)N1CCN(c2nc(NCCC(=O)N(C)CCOCCOCCOCCNC(=O)c3ccc(NC(=O)[C@@H]4N[C@@H](CC(C)(C)C)[C@](C#N)(c5ccc(Cl)cc5F)[C@H]4c4cccc(Cl)c4F)c(OC)c3)nc3c(F)c(-c4c(O)cccc4F)c(Cl)cc23)CC1 (atropisomer, axis not shown) [compound 311, (2R,3S,4R,5S)-N-(4-((15-((4-(4-acryloylpiperazin-1-yl)-6-chloro-8-fluoro-7-((S)-2-fluoro-6-hydroxyphenyl)quinazolin-2-yl)amino)-12-methyl-13-oxo-3,6,9-trioxa-12-azapentadecyl)carbamoyl)-2-methoxyphenyl)-3-(3-chloro-2-fluorophenyl)-4-(4-chloro-2-fluorophenyl)-4-cyano-5-neopentylpyrrolidine-2-carboxamide]
